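Cultured in 96-well plates, cells were exposed to test compound for 48 hours across five concentrations. Here, GI50 denotes the concentration required for 50% inhibition of growth.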 The source made the active and inactive calls. Cut-off read from the data, not from the text of the source: active = GI50 up to about 1.1 µM and inactive = higher. Where a SMILES comes first, the peptide text is derived from it. The star is where a group is joined. Fmoc = O=C(OCC1c2ccccc2-c2ccccc21)*; OtBu = CC(C)(C)O*
Assays:
Assay in all cases: NCI anticancer screen, dose series, 48 h
[1] = tested on: HCC 2998
[2] = tested on: DLD-1
[3] = tested on: HCT-116
[4] = tested on: HOP-92
[5] = tested on: SW-620
[6] = tested on: SF-295
[7] = tested on: Malme-3M
[8] = tested on: RXF 393
[9] = tested on: EKVX
[10] = tested on: TK-10
[11] = tested on: UACC-257
[12] = tested on: 786-0
[13] = tested on: RPMI-8226
[14] = tested on: ACHN
[15] = tested on: SK-MEL-5
[16] = tested on: BT-549
[17] = tested on: PC-3
[18] = tested on: MDA-N
[19] = tested on: DU-145
[20] = tested on: NCI/ADR-RES

Measured: GI50

O=C(COc1ccccc1)NS(=O)(=O)c1ccccc1
inactive: [1] > 100 µM | [2] > 100 µM | [3] > 100 µM | [4] > 100 µM | [5] > 100 µM | [6] > 100 µM | [7] > 100 µM | [8] > 100 µM | [9] > 100 µM | [10] > 100 µM | [11] > 100 µM | [12] > 100 µM | [13] > 100 µM | [14] > 100 µM

COC(=O)C(=O)C(C(=O)C(=O)Nc1cccc(C(C)=O)c1)c1nc2ccccc2nc1O (centres undefined)
inactive: [1] > 100 µM | [2] > 100 µM | [4] > 100 µM | [15] > 100 µM | [5] > 100 µM | [6] > 100 µM | [7] > 100 µM | [8] > 100 µM | [9] 48.3 µM | [10] > 100 µM | [11] > 100 µM | [12] > 100 µM | [14] > 100 µM

CC(=O)NC1=C(C)C(=O)c2c(nc3n2CCC3OC(=O)CCl)C1=O (centres undefined)
inactive: [1] 12.9 µM | [2] 12.9 µM | [3] 2.3 µM | [4] 2.33 µM | [15] 12.7 µM | [5] 8.99 µM | [6] 16.1 µM | [7] 3.66 µM | [8] 5.43 µM | [9] 8.57 µM | [10] 21 µM | [11] 12.7 µM | [12] 9.48 µM | [13] 2.65 µM | [14] 20.7 µM

CC(=O)NNc1nc(C)c(C(/C=C/c2ccc(Cl)cc2)=N\N=C(N)N)s1
inactive: [1] > 100 µM | [2] > 100 µM | [3] > 100 µM | [4] > 100 µM | [15] > 100 µM | [5] > 100 µM | [6] > 100 µM | [7] > 100 µM | [8] > 100 µM | [10] > 100 µM | [11] > 100 µM | [12] > 100 µM | [13] > 100 µM | [14] > 100 µM

O=C1CSc2cc([N+](=O)[O-])ccc2N1
inactive: [1] > 100 µM | [2] > 100 µM | [3] > 100 µM | [15] > 100 µM | [5] > 100 µM | [6] > 100 µM | [7] > 100 µM | [8] > 100 µM | [9] > 100 µM | [10] > 100 µM | [11] > 100 µM | [12] > 100 µM | [14] > 100 µM

O=S(=O)(/C=C/c1ccc(Cl)cc1Cl)Cc1ccccc1CS(=O)(=O)/C=C/c1ccc(Cl)cc1Cl
inactive: [1] > 100 µM | [2] 29 µM | [3] 9.59 µM | [4] 35.8 µM | [5] > 100 µM | [6] 89.3 µM | [8] 65.2 µM | [9] > 100 µM | [10] > 100 µM | [11] 52.8 µM | [12] > 100 µM | [13] 5.15 µM | [14] 63.8 µM

N#CC(C(=O)CCC(=O)Nc1ccc(Cl)cc1)c1ccc(Cl)cc1 (centres undefined)
inactive: [1] > 100 µM | [2] 71.3 µM | [3] 65.9 µM | [4] > 100 µM | [15] > 100 µM | [5] > 100 µM | [6] > 100 µM | [7] > 100 µM | [9] > 100 µM | [10] > 100 µM | [11] > 100 µM | [12] > 100 µM | [13] > 100 µM | [14] 77.1 µM

CCCCCCC1=NOC(C(c2cc[nH]c2)N(C)[C@H](C(=O)OC)C(C)C)C1 (some centres undefined)
inactive: [1] 33.9 µM | [2] 34.1 µM | [3] 34.4 µM | [4] 51.4 µM | [15] 41.8 µM | [5] 26.6 µM | [6] 47.1 µM | [7] 70.1 µM | [8] 52.7 µM | [9] 19.8 µM | [10] 35.4 µM | [11] 37.7 µM | [12] 58.9 µM | [14] 34.4 µM

CCOC(=O)C12CCCC1(O)N(NC(=O)c1cccc(Cl)c1)C(C)=C2C(=O)OC (centres undefined)
inactive: [1] > 100 µM | [2] > 100 µM | [3] > 100 µM | [15] > 100 µM | [5] > 100 µM | [6] 72.4 µM | [7] > 100 µM | [8] 46.5 µM | [9] 56.6 µM | [11] 69.5 µM | [12] > 100 µM | [13] 56 µM | [14] > 100 µM

CCN(CC)CC(=O)NC1c2ccccc2Oc2c(C)cccc21 (centres undefined)
inactive: [1] > 100 µM | [2] 81.3 µM | [3] 95.5 µM | [15] 69.5 µM | [5] > 100 µM | [8] 38.7 µM | [9] > 100 µM | [10] > 100 µM | [11] > 100 µM | [12] > 100 µM | [13] 78.7 µM | [14] 32.9 µM

CC(=O)C1CCN(c2ccccc2)C1 (centres undefined)
inactive: [2] > 100 µM | [3] > 100 µM | [4] > 100 µM | [15] > 100 µM | [5] > 100 µM | [6] > 100 µM | [8] > 100 µM | [9] > 100 µM | [10] > 100 µM | [11] > 100 µM | [12] > 100 µM | [14] > 100 µM

N#CC12Cc3ccc4c(c3-c3cccc(c31)CCN2C(=O)c1ccccc1)OCO4 (centres undefined)
inactive: [1] > 100 µM | [2] > 100 µM | [3] > 100 µM | [4] 36.2 µM | [15] > 100 µM | [5] > 100 µM | [6] > 100 µM | [7] 64 µM | [8] > 100 µM | [9] > 100 µM | [10] > 100 µM | [11] > 100 µM | [12] 71.6 µM | [13] > 100 µM | [14] 71.8 µM

O=C1C2C(C(=O)N1c1ccccc1)C1(c3ccccc3)OC2(c2ccccc2)c2ccccc21 (centres undefined)
inactive: [1] > 100 µM | [2] > 100 µM | [4] 1.93 µM | [15] 2.78 µM | [5] > 100 µM | [6] > 100 µM | [7] > 100 µM | [8] > 100 µM | [9] > 100 µM | [10] > 100 µM | [11] > 100 µM | [12] > 100 µM | [13] > 100 µM | [14] > 100 µM

CN(C)C(=S)OC(Cn1cncn1)c1ccc(Cl)cc1Cl (centres undefined)
inactive: [1] > 100 µM | [2] > 100 µM | [3] > 100 µM | [4] 72.8 µM | [15] 96.4 µM | [5] > 100 µM | [6] > 100 µM | [7] > 100 µM | [8] > 100 µM | [9] > 100 µM | [10] > 100 µM | [11] > 100 µM | [12] > 100 µM | [13] > 100 µM | [14] > 100 µM

CC#CC(=O)Nc1ccccc1CC(c1c[nH]c2ccccc12)c1c[nH]c2ccccc12
inactive: [1] 18.3 µM | [2] 16.6 µM | [15] 14.2 µM | [5] 16.2 µM | [6] 20.3 µM | [7] 16.6 µM | [8] 7.13 µM | [9] 14.6 µM | [10] 29.9 µM | [11] 21.5 µM | [12] 18.3 µM | [13] 8.32 µM

O=C(O)C[C@@H](Cl)[C@H](NC(=O)OCc1ccccc1)C(=O)O
inactive: [1] > 100 µM | [2] > 100 µM | [3] > 100 µM | [4] > 100 µM | [15] > 100 µM | [5] > 100 µM | [6] > 100 µM | [7] > 100 µM | [8] > 100 µM | [9] > 100 µM | [10] > 100 µM | [11] > 100 µM | [12] > 100 µM | [13] > 100 µM | [14] > 100 µM

COC(=O)C1CCC2(C)[C@H](CCC3O[C@]32C)[C@@]1(C)CC(=O)c1ccoc1 (some centres undefined)
inactive: [1] > 100 µM | [2] > 100 µM | [3] 65.6 µM | [15] 66.1 µM | [5] > 100 µM | [6] > 100 µM | [7] > 100 µM | [8] > 100 µM | [9] 18.7 µM | [10] 36.9 µM | [11] > 100 µM | [12] > 100 µM | [13] 52.7 µM | [14] 34.4 µM

CC([C@H]1CCC2C3CCC4CC5(CC[C@]4(C)C3CC[C@@]21C)c1ccccc1C(=O)N5C)N(C)C (some centres undefined)
inactive: [1] > 100 µM | [2] 36.5 µM | [3] 13.3 µM | [4] 50.5 µM | [15] 17.9 µM | [5] 40.6 µM | [6] 18.7 µM | [7] 21.2 µM | [8] 33 µM | [10] 26.1 µM | [12] 13.9 µM | [13] 20.7 µM | [14] 44.9 µM

CC(C)C(NC(=O)OCC1c2ccccc2-c2ccccc21)C(=O)NC(CCC(=O)OC(C)(C)C)C(=O)OC(C)(C)C (centres undefined) (Fmoc-Val-Glu(OtBu)-OtBu; configuration not given here)
inactive: [1] > 100 µM | [3] 4.42 µM | [16] > 100 µM | [17] 3.99 µM | [18] > 100 µM | [4] > 42 µM | [19] > 100 µM | [15] 7.69 µM | [5] > 71.4 µM | [20] 27 µM | [6] 17.2 µM | [7] > 100 µM | [8] > 20 µM | [9] > 100 µM | [10] > 100 µM | [11] > 100 µM | [12] > 100 µM | [13] 2.92 µM | [14] > 100 µM

Reference: ChEMBL document CHEMBL1201862, “PubChem BioAssay data set” (2004)
